Assays:
HDAC6/8 = experiment: Quantitative proteomics of cellular protein abundance in Kelly cells: HDAC6/8; type: cell-based, human; conditions: for change of cellular HDAC6/8 protein levels (heat map FIG. 3): 1 μM, 5 hours, compared to DMSO control; for reduction in HDAC6/8 protein levels compared to DMSO treated cells: moderated t-test, scatter plots FIG. 2A-2C, 4A-4B
Experimental: Lysis buffer (8 M Urea, 50 mM NaCl, 50 mM 4-(2hydroxyethyl)-1-piperazineethanesulfonic acid (EPPS) pH 8.5, protease and phosphatase inhibitors from Roche®) were added to the cell pellets and homogenized by 20 passes through a 21 gauge (1.25 in. long) needle to achieve a cell lysate with a protein concentration between 1-4 mg mL^−1. A micro-BCA assay (Pierce™) was used to determine the final protein concentration in the cell lysate. 200 μg of protein for each sample were reduced and alkylated as described in Donovan et al., Elife 7:e38430 (2018).
Proteins were precipitated using methanol/chloroform. Four volumes of methanol were added to the cell lysate, followed by one volume of chloroform, and finally three volumes of water. The mixture was vortexed and centrifuged to separate the chloroform phase from the aqueous phase. The precipitated protein was washed with three volumes of methanol, centrifuged and the resulting washed precipitated protein was allowed to air dry. The precipitated protein was resuspended in 4 M Urea, 50 mM HEPES pH 7.4, followed by dilution to 1 M urea with the addition of 200 mM EPPS, pH 8. Proteins were first digested with LysC (1:50; enzyme:protein) for 12 hours at room temperature. The LysC digestion was diluted to 0.5 M Urea with 200 mM EPPS pH 8 followed by digestion with trypsin (1:50; enzyme:protein) for 6 hours at 37° C. Tandem mass tag (TMT) reagents (Thermo Fisher Scientific) were dissolved in anhydrous acetonitrile (ACN) according to manufacturer's instructions.
Anhydrous ACN was added to each peptide sample to a final concentration of 30% v/v, and labeling was induced with the addition of TMT reagent to each sample at a ratio of 1:4 peptide:TMT label. The 10-plex labeling reactions were performed for 1.5 hours at room temperature and the reaction quenched by the addition of hydroxylamine to a final concentration of 0.3% for 15 minutes at room temperature. The sample channels were combined at a 1:1:1:1:1:1:1:1:1:1:1 ratio, desalted using C18 solid phase extraction cartridges (Waters®) and analyzed by LC-MS for channel ratio comparison. Samples were then combined using the adjusted volumes determined in the channel ratio analysis and dried down in a speed vacuum. The combined sample was then resuspended in 1% formic acid, and acidified (pH 2-3) before being subjected to desalting with C18 SPE (Sep-Pak®, Waters®). Samples were then offline fractionated into 96 fractions by high pH reverse-phase HPLC (Agilent® LC1260) through an aeris peptide xb-c18 column (Phenomenex®) with mobile phase A containing 5% acetonitrile and 10 mM NH4HCO3 in LC-MS grade H2O, and mobile phase B containing 90% acetonitrile and 10 mM NH4HCO3 in LC-MS grade H2O (both pH 8.0). The 96 resulting fractions were then pooled in a non-continuous manner into 24 fractions and these fractions were used for subsequent mass spectrometry analysis.
Data were collected using an Orbitrap Fusion™ Lumos™ mass spectrometer (Thermo Fisher Scientific, San Jose, Calif., USA) coupled with a Proxeon EASY-nLC™ 1200 LC pump (Thermo Fisher Scientific). Peptides were separated on an EasySpray™ ES803 75 μm inner diameter microcapillary column (ThermoFisher Scientific).
Each analysis used an MS3-based TMT method as described in McAlister et al., Anal. Chem. 86(14):7150-7158 (2014). The data were acquired using a mass range of m/z 340-1350, resolution 120,000, automatic gain control (AGC) target 1×10^6, maximum injection time 100 ms, dynamic exclusion of 120 seconds for the peptide measurements in the Orbitrap Fusion™ Lumos™ mass spectrometer. Data dependent MS2 spectra were acquired in the ion trap with a normalized collision energy (NCE) set at 55%, AGC target set to 1.5×10^5 and a maximum injection time of 150 ms. […]

CRBN = molecular target: T1, CRBN (Homo sapiens, UniProt Q96SW2); experiment: Cellular CRBN engagement assay (competition with dBET6, BRD4BD2-eGFP reporter, Flip-In 293 cells); type: cell-based; conditions: titrated in the presence of 100 nM dBET6, 5 h, Flip-In 293 cells expressing BRD4BD2-eGFP/mCherry
T1 construct: endogenous in cells; host or cells: Flip-In 293 cells stably expressing BRD4BD2-eGFP-P2A-mCherry
Experimental: BRD4BD2 was subcloned into mammalian pcDNA5/FRT Vector (Ampicillin and Hygromycin B resistant) modified to contain MCS-eGFP-P2A-mCherry. Stable cell lines expressing eGFP-protein fusion and mCherry reporter were generated using Flip-In 293 system. Plasmid (0.3 μg) and pOG44 (4.7 μg) DNA were preincubated in 100 μL of Opti-MEM I (Gibco, Life Technologies™) media containing 0.05 mg/ml Lipofectamine 2000 (Invitrogen™) for 20 min and added to Flip-In 293 cells containing 1.9 ml of DMEM media (Gibco, Life Technologies™) per well in a 6-well plate format (Falcon, 353046). Cells were propagated after 48 h and transferred into a […] (Coming, 430165) in DMEM media containing 50 μg/ml of Hygromycin B (REF 10687010, Invitrogen™) as a selection marker. Following 2-3 passage cycles, FACS (FACSAria II, BD) was used to enrich for cells expressing eGFP and mCherry.
Cells were seeded at 30-50% confluency in either 24, 48 or 96 well plates (3524, 3548, 3596 respectively, Costar) a day before compound treatment. The inventive compounds were titrated in the presence of 100 nM dBET6 and then were incubated with cells for 5 h following trypsinization and resuspension in DMEM media, transferred into 96-well plates (353910, Falcon) and analyzed by flow cytometer (Guava® easyCyte™ HT, Millipore). Signal from at least 3000 events per well was acquired and the eGFP and mCherry florescence monitored. Data was analyzed using FlowJo® (FlowJo®, LCC). Forward and side scatter outliers, frequently associated with cell debris, were removed leaving >90% of total cells, followed by removal of eGFP and mCherry signal outliers, leaving 88-90% of total cells creating the set used for quantification. The eGFP protein abundance relative to mCherry was then quantified as a ten-fold amplified ratio for each individual cell using the formula: 10× eGFP/mCherry. The median of the ratio was then calculated per set, normalized to the median of the DMSO ratio. […]

## O=C(/C=C/c1ccc(CN(CCOCCOCCNc2cccc3c2C(=O)N(C2CCC(=O)NC2=O)C3=O)CCc2c[nH]c3ccccc23)cc1)NO (stereo not drawn) [Compound 1, (E)-3-(4-(((2-(1H-indol-3-yl)ethyl)(2-(2-(2-((2-(2,6-dioxopiperidin-3-yl)-1,3-dioxoisoindolin-4-yl)amino)ethoxy)ethoxy)ethyl)amino)methyl)phenyl)-N-hydroxyacrylamide]
HDAC6/8
  change of cellular HDAC6/8 protein levels (heat map FIG. 3): induced down-regulation
  reduction in HDAC6/8 protein levels compared to DMSO treated cells: significant reduction
CRBN
  IC50: 11.7 µM

## O=C(/C=C/c1ccc(CN(CCCCCNc2cccc3c2C(=O)N(C2CCC(=O)NC2=O)C3=O)CCc2c[nH]c3ccccc23)cc1)NO (stereo not drawn) [Compound 3, (E)-3-(4-(((2-(1H-indol-3-yl)ethyl)(5-((2-(2,6-dioxopiperidin-3-yl)-1,3-dioxoisoindolin-4-yl)amino)pentyl)amino)methyl)phenyl)-N-hydroxyacrylamide]
HDAC6/8
  change of cellular HDAC6/8 protein levels (heat map FIG. 3): induced down-regulation
  reduction in HDAC6/8 protein levels compared to DMSO treated cells: significant reduction
CRBN
  IC50: 10 µM

## O=C(/C=C/c1ccc(CN(CCOCCNc2cccc3c2C(=O)N(C2CCC(=O)NC2=O)C3=O)CCc2c[nH]c3ccccc23)cc1)NO (stereo not drawn) [Compound 2, (E)-3-(4-(((2-(1H-indol-3-yl)ethyl)(2-(2-((2-(2,6-dioxopiperidin-3-yl)-1,3-dioxoisoindolin-4-yl)amino)ethoxy)ethyl)amino)methyl)phenyl)-N-hydroxyacrylamide]
HDAC6/8
  change of cellular HDAC6/8 protein levels (heat map FIG. 3): induced down-regulation
  reduction in HDAC6/8 protein levels compared to DMSO treated cells: significant reduction
CRBN
  IC50: 19.2 µM

Source: US20220387604A1, “SELECTIVE DUAL HISTONE DEACETYLASE 6/8 (HDAC6/8) DEGRADERS AND METHODS OF USE THEREOF” (DANA-FARBER CANCER INSTITUTE, INC., priority 2019, published 2022)
